Data published in US12226424B2, “Target protein degradation compounds, their anti-tumor use, their intermediates and use of intermediates” (ShanghaiTech University, priority 2018, dated 2025).
Like-named read-outs stand apart in the source and are kept apart here.

Key:
[1] = tested on: K562 cells (BCR-ABL positive); test: Half inhibitory concentration (IC50) on tumor cells, CCK-8, K562; details: Homo sapiens, K562, 48 h, read-out: IC50 (nM)/K562 cell line
CDK4/6 protein = test: Western-blot determination of CDK4/6 protein degradation (DC50) in T-47D cells; type: cell-based, human
[2] = 24 h drug treatment, read-out: DC50(nM)/T-47D cell line

Cc1ccc(C(=O)Nc2ccc(CN3CCN(C(=O)CCSc4cccc5c4CN(C4CCC(=O)NC4=O)C5=O)CC3)c(C(F)(F)F)c2)cc1C#Cc1cnc2cccnn12 (centres unmarked) [SIAIS220052, N-(4-((4-(3-((2-(2,6-dioxopiperidin-3-yl)-1-oxoisoindolin-4-yl)thio)propanoyl)piperazin-1-yl)methyl)-3-(trifluoromethyl)phenyl)-3-(imidazo[1,2-b]pyridazin-3-ylethynyl)-4-methylbenzamide]
IC50 [1]: 2.62 nM

Cc1ccc(C(=O)Nc2ccc(CN3CCN(C(=O)CCCCCSc4cccc5c4C(=O)N(C4CCC(=O)NC4=O)C5=O)CC3)c(C(F)(F)F)c2)cc1C#Cc1cnc2cccnn12 (centres unmarked) [SIAIS220049, N-(4-((4-(6-((2-(2,6-dioxopiperidin-3-yl)-1,3-dioxoisoindolin-4-yl)thio)hexanoyl)piperazin-1-yl)methyl)-3-(trifluoromethyl)phenyl)-3-(imidazo[1,2-b]pyridazin-3-ylethynyl)-4-methylbenzamide]
IC50 [1]: 5.75 nM

COc1cc(Nc2c(C#N)cnc3cc(OCCCN4CCN(C(=O)CCCCCCSc5cccc6c5C(=O)N(C5CCC(=O)NC5=O)C6=O)CC4)c(OC)cc23)c(Cl)cc1Cl (centres unmarked) [SIAIS151173, 4-((2,4-dichloro-5-methoxyphenyl)amino)-7-(3-(4-(7-((2-(2,6-dioxopiperidin-3-yl)-1,3-dioxoisoindolin-4-yl)thio)heptanoyl)piperazin-1-yl)propoxy)-6-methoxyquinoline-3-carbonitrile]
IC50 [1]: 8260 nM

Cc1ccc(C(=O)Nc2ccc(CN3CCN(C(=O)CCCSc4cccc5c4C(=O)N(C4CCC(=O)NC4=O)C5=O)CC3)c(C(F)(F)F)c2)cc1C#Cc1cnc2cccnn12 (centres unmarked) [SIAIS220047, N-(4-((4-(4-((2-(2,6-dioxopiperidin-3-yl)-1,3-dioxoisoindolin-4-yl)thio)butanoyl)piperazin-1-yl)methyl)-3-(trifluoromethyl)phenyl)-3-(imidazo[1,2-b]pyridazin-3-ylethynyl)-4-methylbenzamide]
IC50 [1]: 3.23 nM

Cc1ccc(C(=O)Nc2ccc(CN3CCN(C(=O)CCCSc4cccc5c4CN(C4CCC(=O)NC4=O)C5=O)CC3)c(C(F)(F)F)c2)cc1C#Cc1cnc2cccnn12 (centres unmarked) [SIAIS220053, N-(4-((4-(4-((2-(2,6-dioxopiperidin-3-yl)-1-oxoisoindolin-4-yl)thio)butanoyl)piperazin-1-yl)methyl)-3-(trifluoromethyl)phenyl)-3-(imidazo[1,2-b]pyridazin-3-ylethynyl)-4-methylbenzamide]
IC50 [1]: 4.06 nM

Cc1ccc(C(=O)Nc2ccc(CN3CCN(C(=O)CSc4cccc5c4CN(C4CCC(=O)NC4=O)C5=O)CC3)c(C(F)(F)F)c2)cc1C#Cc1cnc2cccnn12 (centres unmarked) [SIAIS220051, N-(4-((4-(2-((2-(2,6-dioxopiperidin-3-yl)-1-oxoisoindolin-4-yl)thio)acetyl)piperazin-1-yl)methyl)-3-(trifluoromethyl)phenyl)-3-(imidazo[1,2-b]pyridazin-3-ylethynyl)-4-methylbenzamide]
IC50 [1]: 1.78 nM

Cc1ccc(C(=O)Nc2ccc(CN3CCN(C(=O)CCCCSc4cccc5c4CN(C4CCC(=O)NC4=O)C5=O)CC3)c(C(F)(F)F)c2)cc1C#Cc1cnc2cccnn12 (centres unmarked) [SIAIS220054, N-(4-((4-(5-((2-(2,6-dioxopiperidin-3-yl)-1-oxoisoindolin-4-yl)thio)pentanoyl)piperazin-1-yl)methyl)-3-(trifluoromethyl)phenyl)-3-(imidazo[1,2-b]pyridazin-3-ylethynyl)-4-methylbenzamide]
IC50 [1]: 2.68 nM

COc1cc(Nc2c(C#N)cnc3cc(OCCCN4CCN(C(=O)CCCCSc5cccc6c5C(=O)N(C5CCC(=O)NC5=O)C6=O)CC4)c(OC)cc23)c(Cl)cc1Cl (centres unmarked) [SIAIS151171, 4-((2,4-dichloro-5-methoxyphenyl)amino)-7-(3-(4-(5-((2-(2,6-dioxopiperidin-3-yl)-1,3-dioxoisoindolin-4-yl)thio)pentanoyl)piperazin-1-yl)propoxy)-6-methoxyquinoline-3-carbonitrile]
IC50 [1]: 1540 nM

COc1cc(Nc2c(C#N)cnc3cc(OCCCN4CCN(C(=O)CCCSc5cccc6c5C(=O)N(C5CCC(=O)NC5=O)C6=O)CC4)c(OC)cc23)c(Cl)cc1Cl (centres unmarked) [SIAIS151170, 4-((2,4-dichloro-5-methoxyphenyl)amino)-7-(3-(4-(4-((2-(2,6-dioxopiperidin-3-yl)-1,3-dioxoisoindolin-4-yl)thio)butanoyl)piperazin-1-yl)propoxy)-6-methoxyquinoline-3-carbonitrile]
IC50 [1]: 400 nM

CN(C)C(=O)c1cc2cnc(Nc3ccc(N4CCN(C(=O)CCCCCSc5cccc6c5C(=O)N(C5CCC(=O)NC5=O)C6=O)CC4)cn3)nc2n1C1CCCC1 (centres unmarked) [SIAIS219104, 7-cyclopentyl-2-((5-(4-(6-((2-(2,6-dioxopiperidin-3-yl)-1,3-dioxoisoindolin-4-yl)thio)hexanoyl)piperazin-1-yl)pyridin-2-yl)amino)-N,N-dimethyl-7H-pyrrolo[2,3-d]pyrimidine-6-carboxamide]
DC50 (CDK4/6 protein; [2]): 1 to 10 nM

CC(=O)c1c(C)c2cnc(Nc3ccc(N4CCN(C(=O)CCCCCSc5cccc6c5CN(C5CCC(=O)NC5=O)C6=O)CC4)cn3)nc2n(C2CCCC2)c1=O (centres unmarked) [SIAIS219054, 3-(4-((6-(4-(6-((6-acetyl-8-cyclopentyl-5-methyl-7-oxo-7,8-dihydropyrido[2,3-d]pyrimidin-2-yl)amino)pyridin-3-yl)piperazin-1-yl)-6-oxohexyl)thio)-1-oxoisoindolin-2-yl)piperidine-2,6-dione]
DC50 (CDK4/6 protein; [2]): < 1 nM

CC(=O)c1c(C)c2cnc(Nc3ccc(N4CCN(C(=O)C[S+]([O-])c5cccc6c5C(=O)N(C5CCC(=O)NC5=O)C6=O)CC4)cn3)nc2n(C2CCCC2)c1=O (centres unmarked) [SIAIS151057, 4-((2-(4-(6-((6-acetyl-8-cyclopentyl-5-methyl-7-oxo-7,8-dihydropyrido[2,3-d]pyrimidin-2-yl)amino)pyridin-3-yl)piperazin-1-yl)-2-oxoethyl)sulfinyl)-2-(2,6-dioxopiperidin-3-yl)isoindoline-1,3-dione]
DC50 (CDK4/6 protein; [2]): 100 to 500 nM

CC(=O)c1c(C)c2cnc(Nc3ccc(N4CCN(C(=O)COCCOCCOCCSc5cccc6c5C(=O)N(C5CCC(=O)NC5=O)C6=O)CC4)cn3)nc2n(C2CCCC2)c1=O (centres unmarked) [SIAIS219060, 4-((2-(2-(2-(2-(4-(6-((6-acetyl-8-cyclopentyl-5-methyl-7-oxo-7,8-dihydropyrido[2,3-d]pyrimidin-2-yl)amino)pyridin-3-yl)piperazin-1-yl)-2-oxoethoxy)ethoxy)ethoxy)ethyl)thio)-2-(2,6-dioxopiperidin-3-yl)isoindoline-1,3-dione]
DC50 (CDK4/6 protein; [2]): 1 to 10 nM

Cc1nc2c(F)cc(-c3nc(Nc4ccc(CN5CCN(C(=O)CCCCCCCCCCSc6cccc7c6CN(C6CCC(=O)NC6=O)C7=O)CC5)cn4)ncc3F)cc2n1C(C)C (centres unmarked) [SIAIS262170, 3-(4-((11-(4-((6-((5-fluoro-4-(4-fluoro-1-isopropyl-2-methyl-1H-benzo[d]imidazol-6-yl)pyrimidin-2-yl)amino)pyridin-3-yl)methyl)piperazin-1-yl)-11-oxoundecyl)thio)-1-oxoisoindolin-2-yl)piperidine-2,6-dione]
DC50 (CDK4/6 protein; [2]): 50 nM

Cc1nc2c(F)cc(-c3nc(Nc4ccc(CN5CCN(C(=O)CCCCCCSc6cccc7c6CN(C6CCC(=O)NC6=O)C7=O)CC5)cn4)ncc3F)cc2n1C(C)C (centres unmarked) [SIAIS262169, 3-(4-((7-(4-((6-((5-fluoro-4-(4-fluoro-1-isopropyl-2-methyl-1H-benzo[d]imidazol-6-yl)pyrimidin-2-yl)amino)pyridin-3-yl)methyl)piperazin-1-yl)-7-oxoheptyl)thio)-1-oxoisoindolin-2-yl)piperidine-2,6-dione]
DC50 (CDK4/6 protein; [2]): 5 nM

CN(C)C(=O)c1cc2cnc(Nc3ccc(N4CCN(C(=O)CSc5cccc6c5CN(C5CCC(=O)NC5=O)C6=O)CC4)cn3)nc2n1C1CCCC1 (centres unmarked) [SIAIS219086, 7-cyclopentyl-2-((5-(4-(2-((2-(2,6-dioxopiperidin-3-yl)-1-oxoisoindolin-4-yl)thio)acetyl)piperazin-1-yl)pyridin-2-yl)amino)-N,N-dimethyl-7H-pyrrolo[2,3-d]pyrimidine-6-carboxamide]
DC50 (CDK4/6 protein; [2]): < 1 nM

CC(=O)c1c(C)c2cnc(Nc3ccc(N4CCN(C(=O)CCSc5cccc6c5CN(C5CCC(=O)NC5=O)C6=O)CC4)cn3)nc2n(C2CCCC2)c1=O (centres unmarked) [SIAIS219052, 3-(4-((3-(4-(6-((6-acetyl-8-cyclopentyl-5-methyl-7-oxo-7,8-dihydropyrido[2,3-d]pyrimidin-2-yl)amino)pyridin-3-yl)piperazin-1-yl)-3-oxopropyl)thio)-1-oxoisoindolin-2-yl)piperidine-2,6-dione]
DC50 (CDK4/6 protein; [2]): < 1 nM

CN(C)C(=O)c1cc2cnc(Nc3ccc(N4CCN(C(=O)CCSc5cccc6c5C(=O)N(C5CCC(=O)NC5=O)C6=O)CC4)cn3)nc2n1C1CCCC1 (centres unmarked) [SIAIS219101, 7-cyclopentyl-2-((5-(4-(3-((2-(2,6-dioxopiperidin-3-yl)-1,3-dioxoisoindolin-4-yl)thio)propanoyl)piperazin-1-yl)pyridin-2-yl)amino)-N,N-dimethyl-7H-pyrrolo[2,3-d]pyrimidine-6-carboxamide]
DC50 (CDK4/6 protein; [2]): < 100 nM

CN(C)C(=O)c1cc2cnc(Nc3ccc(N4CCN(C(=O)CCCCCCSc5cccc6c5C(=O)N(C5CCC(=O)NC5=O)C6=O)CC4)cn3)nc2n1C1CCCC1 (centres unmarked) [SIAIS219105, 7-cyclopentyl-2-((5-(4-(7-((2-(2,6-dioxopiperidin-3-yl)-1,3-dioxoisoindolin-4-yl)thio)heptanoyl)piperazin-1-yl)pyridin-2-yl)amino)-N,N-dimethyl-7H-pyrrolo[2,3-d]pyrimidine-6-carboxamide]
DC50 (CDK4/6 protein; read-out: DC50(nM)/T-47D cell line, 24 h drug treatment): 0.04 to 0.2 nM

Cc1nc2c(F)cc(-c3nc(Nc4ccc(CN5CCN(CCCCCCSc6cccc7c6CN(C6CCC(=O)NC6=O)C7=O)CC5)cn4)ncc3F)cc2n1C(C)C (centres unmarked) [SIAIS262173, 3-(4-((6-(4-((6-((5-fluoro-4-(4-fluoro-1-isopropyl-2-methyl-1H-benzo[d]imidazol-6-yl)pyrimidin-2-yl)amino)pyridin-3-yl)methyl)piperazin-1-yl)hexyl)thio)-1-oxoisoindolin-2-yl)piperidine-2,6-dione]
DC50 (CDK4/6 protein; [2]): 0.05 to 0.5 nM
